# Patent publication US20050165057A1, “Novel piperidine derivative” (priority 2002, published 2005)
# Columns and labels:
# ACAT [1] = molecular target: T1, ACAT (Rattus norvegicus, UniProt O70536); test: Assay of ACAT inhibitory activity in a macrophage derived from rat peritoneal cavity; type: cell-based; conditions: concentration of compound: 500 nM
# T1 construct: The rat peritoneal-derived macrophage was prepared according to the method disclosed in the literature; endogenous in cells; host or cells: rat peritoneal macrophages (primary cells)
# T1 sequence (O70536 1-545): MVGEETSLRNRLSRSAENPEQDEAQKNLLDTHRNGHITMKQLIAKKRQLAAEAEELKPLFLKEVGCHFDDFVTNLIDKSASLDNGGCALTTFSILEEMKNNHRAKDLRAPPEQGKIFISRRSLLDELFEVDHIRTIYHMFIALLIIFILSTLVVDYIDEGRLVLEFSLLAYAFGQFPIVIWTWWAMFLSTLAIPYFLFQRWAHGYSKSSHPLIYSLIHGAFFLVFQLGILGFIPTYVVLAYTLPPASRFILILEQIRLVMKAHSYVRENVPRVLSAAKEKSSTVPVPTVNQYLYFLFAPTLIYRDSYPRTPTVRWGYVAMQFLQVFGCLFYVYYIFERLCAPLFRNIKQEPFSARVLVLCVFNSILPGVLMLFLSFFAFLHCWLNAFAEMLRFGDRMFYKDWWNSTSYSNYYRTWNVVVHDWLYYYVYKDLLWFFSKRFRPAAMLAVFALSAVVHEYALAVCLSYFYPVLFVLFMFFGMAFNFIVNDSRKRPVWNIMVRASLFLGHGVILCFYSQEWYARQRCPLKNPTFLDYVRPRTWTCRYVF
# Experimental: 2. Assay of ACAT Inhibitory Activity in a Macrophage Derived from Rat Peritoneal Cavity:
# The rat peritoneal-derived macrophage was prepared according to the method disclosed in the literature: Biochimica et Biophysica Acta, 1126, 73-80, 1992. The ACAT activity was determined by a modified method of the method disclosed in the above literature: Biochimica et Biophysica Acta, 1126, 73-80, 1992, using radioactive [9, 10-^3H]oleic acid and exogenous cholesterol contained in the liposome which was re-constituted according to the method disclosed in the literature: Biochimica et Biophysica Acta, 1213, 127-134, 1994, and calculated from the radioactivity of the labeled cholesterolyl oleate.
# ACAT [2] = test: Assay of ACAT inhibitory activity using Caco-2 cells; type: cell-based, human; conditions: concentration of compound: 500 nM
# Experimental: 1. Assay of ACAT Inhibitory Activity Using Caco-2 Cells Derived from Human Colon Adenocarcinoma:
# The measurement of ACAT inhibitory activity using Caco-2 cells was carried out by a modified method of that disclosed in the literature (J. Lipid. Research, 28, 1057-1066, 1987, Jpn. J. Pharmacol., 68, 191-199, 1995), using radioactive [1-^3H]oleic acid as a substrate, and the enzymatic activity was calculated from the radioactivity of the resultant labeled cholesterolyl oleate.
smiles,measurement,setting,value
"CC(C)c1cc(N)cc(C(C)C)c1NC(=O)NCC1(c2cccc(OCCCNC(=O)CC(F)(F)F)c2)CCN(c2ccccc2)CC1 [Example 11-1, N-{(1-phenyl-4-{3-[3-(2,2,2-trifluoroethyl)carbonylaminopropoxy]phenyl}piperidin-4-yl)methyl}-N′-(4-amino-2,6-diisopropylphenyl)urea]",ACAT inhibitory rate (%),ACAT [1],99%
same,ACAT inhibitory rate (%),ACAT [2],57%
"COc1cccc(C2(CNC(=O)Nc3c(C(C)C)cc(N)cc3C(C)C)CCN(c3cccc(C)c3)CC2)c1 [Example 12-2, N-{[1-(3-methylphenyl)-4-(3-methoxyphenyl)piperidin-4-yl]methyl}-N′-(4-amino-2,6-diisopropylphenyl)urea]",ACAT inhibitory rate (%),ACAT [1],99%
same,ACAT inhibitory rate (%),ACAT [2],59%
"COc1cccc(C2(CNC(=O)Nc3c(C(C)C)cc(N)cc3C(C)C)CCN(c3cccc(F)c3)CC2)c1 [Example 12-3, N-{[1-(3-fluorophenyl)-4-(3-methoxyphenyl)piperidin-4-yl]methyl}-N′-(4-amino-2,6-diisopropylphenyl)urea]",ACAT inhibitory rate (%),ACAT [1],99%
same,ACAT inhibitory rate (%),ACAT [2],63%
